Experimental data published in patent publication US20190160084A1, “METHODS FOR THE TREATMENT OF CANCER USING MEGLUMINE” (Dynamis Pharmaceuticals, Inc., priority 2016, published 2019).

Assays:
[1] = test system: skin tumors; settings: DFMO given during the promotion phase; cited from earlier work
[2] = test system: THP-1 cells; test: LPS-induced cytokine levels in media of THP-1 cells (Bio-Plex immunoassay); format: cell-based, human; settings: 25 ng LPS, 40 or 80 mM meglumine hydrochloride, 24 hours
Description: THP-1 cells (human acute monocytic leukemia) were grown in a 24-well polystyrene plate in 1 ml of RPMI media with 10% fetal bovine serum. Cells were treated with 25 ng of lipopolysaccharide (LPS) (Sigma) in the presence or absence of 40 or 80 mM meglumine hydrochloride. After 24 hours, the media was centrifuged to remove the cells and analyzed for cytokine content using a Bio-Plex® immunoassay (Bio-Rad). The LPS induced levels of IL-17, IL-8, MIP-1 alpha, MIP-1 beta, IL-9 and IP-10 were decreased in the presence of meglumine (FIG. 5).

[3] = test system: skin tumors in DMBA-initiated K6/ODC transgenic mice; test: Skin tumor formation and growth in DMBA-initiated K6/ODC transgenic mice, meglumine in drinking water; format: in vivo
Description: K6/ODC transgenic mice are highly susceptible to developing skin tumors following a single treatment with a low subthreshold dose of the carcinogen DMBA. The effect of oral administration of meglumine in the drinking water was tested on the formation and growth of skin tumors in DMBA-initiated K6/ODC transgenic mice and their normal littermates. Four day old K6/ODC transgenic mice and their normal littermates were initiated with a single topical application of 300 nmol DMBA in 50 μl acetone.
(§1) Upon weaning, K6/ODC transgenic mice and their normal littermates were divided into two treatment groups where they received ad lib either tap water or water with 37.5 mM meglumine (Sigma Chemical Co.) in their drinking water. Meglumine-containing water was changed twice a week. […] Mice were monitored for tumor development. Tumor growth was assessed morphometrically using calipers, and tumor volumes were calculated according to the formula V (mm^3)=π/6×A×B^2 (A is larger diameter, B is the smaller diameter) (Buzzai et al.).

[4] = Tolerability of meglumine in the drinking water (water consumption, adverse effects); format: in vivo; settings: 37.5 mM meglumine in drinking water ad lib; K6/ODC transgenic mice and normal littermates
Description: as §1

[5] = K6/ODC transgenic mice, compared to control water, monitored 4 months

## NCCC[C@](N)(C(=O)O)C(F)F [DFMO, α-difluoromethylornithine]
[1]
  development of skin tumors: inhibits

## CNC[C@H](O)[C@@H](O)[C@H](O)[C@H](O)CO.Cl [meglumine hydrochloride]
[2]
  LPS induced level of IL-8: decreased
  LPS induced level of IL-9: decreased
  LPS induced level of IL-17: decreased
  LPS induced level of IP-10: decreased
  LPS induced level of MIP-1 alpha: decreased
  LPS induced level of MIP-1 beta: decreased

## CNC[C@H](O)[C@@H](O)[C@H](O)[C@H](O)CO [meglumine, (2R,3R,4R,5S)-6-methylaminohexane-1,2,3,4,5-pentol]
[3]; K6/ODC transgenic mice (6/6), 37.5 mM meglumine in drinking water, control (5/5): 50 days
  age at which all mice had skin tumors: 73 days of age
[3]; K6/ODC transgenic mice, 37.5 mM meglumine in drinking water, control tap water: 45 days
  age at which skin tumors first developed: 60 days of age
[3]; K6/ODC transgenic mice, at any given age, compared to control tap water, monitored 4 months
  numbers of skin tumors: fewer
[3]; [5]
  cumulative tumor burden (average total tumor volume per mouse): lower
  tumor growth: slowed
[3]; normal littermates n=10, with or without meglumine-supplemented water, single subthreshold dose of DMBA
  skin tumor development in normal littermates: no normal littermates
[4]
  adverse effects (weight loss, lethargy, ruffed fur, diarrhea, or general malaise): nor did it have any adverse effects
  consumption of water: did not affect
